Key:
Type in all cases: in vivo
[1] = Anti-inflammatory activity: carrageenin edema test in rats; conditions: Rattus norvegicus, po, read-out: ID50 Anti-inflammatory
Excerpt: Anti-inflammatory activity
Tested by carrageenin edema test in rats [C.

[2] = Antipyretic activity: TTG-induced fever test in guinea pigs; conditions: Cavia porcellus, po, read-out: ID50 Antipyretic
Excerpt: Antipyretic activity Tested by TTG-induced fever test in guinea pigs [ modified methodof S. Kobayashi, H. Takagi; Jap.

[3] = Analgesic activity: thermal pain test in rats; conditions: Rattus norvegicus, po, read-out: ID50 Analgesic
[4] = TTG-induced fever test in guinea pigs

SMILES	ED50 ([1]; carrageenin edema test in rats) [mg/kg]	ED50 [2, 4] [mg/kg]	ED50 ([3]; thermal pain test in rats) [mg/kg]	ED50 [1] [mg/kg]	ED50 [2] [mg/kg]	ED50 [3] [mg/kg]
CCC1Cc2ccc(C(C)C(=O)O)cc2C1 (stereo not drawn) [2-(2-Ethylindan-5-yl)propionic acid]	10.3	1.7	10.5			
CC(C(=O)O)c1ccc2c(c1)CC(C(C)C)C2 (stereo not drawn) [2-(2-Isopropylindan-5-yl)propionic acid]	7.1	1.8	2.5			
CC(=O)Oc1ccccc1C(=O)O [Acetylsalicylic acid, reference compound]				133	194	81

Source: patent US4007179A, “Oxoindanylpropionic acids and process for the preparation thereof” (Sankyo Company Limited, priority 1975, dated 1977)
